According to US8586300B2, “Genetic polymorphisms and infertility” (The University of North Carolina at Chapel Hill, priority 2008, dated 2013):

Legend:
[1] = test system: isolated rat hepatic mitochondria; conditions: inhibition of electron transport chain Complex I (rotenone) or Complex II (malonate); cited from earlier work
spermatozoa mitochondria [2] = experiment: MTT assay of mitochondrial function in sperm after betaine supplementation; type: in vivo, mouse
Experimental: (§1) FIGS. 17A-17D are bar graphs showing the results of betaine supplementation on sperm concentration, motility and mitochondrial function in CHDH+/+ (WT), CHDH+/−, and CHDH−/− (KO) mice. […] Spermatozoa concentration was determined by counting cells using a hemocytometer. Results are presented as mean±SEM, n=9-11 animals per genotype. […] Motility assays were performed by counting the number of progressively motile sperm per total number of sperm in 5 squares of a hemocytometer. The results are presented as the mean % motility±SEM, p<0.001, n=8-9 animals per genotype. […] Absorbance values were normalized to the number of sperm assayed. All assays were performed in duplicate. The value for each animal is the mean of 4 assays (2 cauda epididymii, each assayed in duplicate per animal). Results are presented as the mean±SEM, p<0.05, n=5 animals/group. […] The number of cells that fluoresced red was counted in 5 random fields of vision for each sample and results are expressed as a percent of the total cells in those fields. Results are presented as mean±SEM, p<0.001, n=5 animals/group.
Sperm were isolated from the cauda epididymis as described above. An MTT (3-(4,5-dimethyl thiazol-2-yl)-2,5-diphenyl tetrazolium bromide) assay was conducted to measure mitochondrial function (Nasr-Esfahani, Aboutorabi et al. 2002) with the following modification: rather then visualizing positive MTT staining microscopically, MTT assays were conducted using a commercially available MIT assay kit (CellTiter 96 Non-radioactive Cell Proliferation Assay, Promega, Madison, Wis., United States of America) and cells were solubolized with the provided Solubolization/Stop Mix. 100 μL of isolated sperm were incubated in F10 media (Invitrogen Inc., Carlsbad, Calif., United States of America) in a 96-well plate with 15 μL of MTT solution at 37° C./5% CO2 for 2 hours. Following solubolization, the absorbance of each sample was read at a wavelength of 562 nm using a BIOTEK® plate reader (BioTek Instruments Inc., Winooski, Vt., United States of America). Absorbance was normalized to the number of sperm assayed.

sperm [3] = experiment: Sperm motility (progressively motile sperm, hemocytometer) after betaine supplementation via drinking water; type: in vivo, mouse
Experimental: as §1
Eight to 10 week old CHDH^+/+ and CHDH^−/− male mice were anesthetized with Halothane (Henry Schein, Inc.). A V-shaped incision was made beginning at the penis and extending out to the midline of the body. Testis and epididymis were excised from the animal and immediately placed in a 6-well tissue culture dish containing approximately 1 ml of M16 media (Sigma) in a well. All media, plates and tubes used were warmed to 37° C. prior to the dissection. Any plate or tube containing sperm, once isolated, was kept at 37° C. with 5% CO2 for the duration of the experiment. The cauda epididymis was separated from the other structures and then placed in a 24-well plate containing 300 μl of fresh M16 media in each well. The cauda epididymis was then cut several times and the dish was incubated at 37° C. with 5% CO2 for 15 minutes. Sperm concentration was determined by counting cells with a hemocytometer. Percent motility was determined by counting the number of progressively motile sperm per total number of sperm present using a hemocytometer. “Progressively motile sperm” refers to sperm that swim forward in a somewhat straight line. Sperm that were moving, but that were swimming in circles were classified as non-progressively motile.
To determine whether sperm motility can be restored through betaine supplementation, CHDH−/− mice were given drinking water supplemented to 2% betaine for 38 days.

spermatozoa mitochondria [4] = experiment: JC-1 staining, mitochondrial membrane potential in sperm after betaine supplementation; type: in vivo, mouse; conditions: JC-1 staining of sperm
Experimental: as §1, with “animal).” for “animal). Results are presented as the mean±SEM, p<0.05, n=5 animals/group.”, “Results are presented as mean±SEM, p<0.001, n=5 animals/group.” left out
To detect changes in mitochondrial membrane polarization, JC-1 staining was performed on sperm harvested from cauda epididymis (see FIGS. 8-11 and 13). […] 20 μl of each stained sample was examined with a fluorescence microscope (Olympus BX50, Olympus America, Inc., Center Valley, Pa., United States of America) and large band epifluorescence filters. […] Five fields of vision were counted for each sample and results expressed as percent of total cells.

[5] = humans, dietary supplementation; cited from earlier work
sperm [6] = experiment: Sperm concentration (hemocytometer) after betaine supplementation; type: in vivo, mouse
Experimental: as §1, with “Results are presented as mean±SEM, p<0.001, n=5 animals/group.” left out
Eight to 10 week old CHDH^+/+ and CHDH^−/− male mice were anesthetized with Halothane (Henry Schein, Inc.). […] Sperm concentration was determined by counting cells with a hemocytometer. Percent motility was determined by counting the number of progressively motile sperm per total number of sperm present using a hemocytometer. […]

Row | MTT conversion compared to untreated CHDH+/+ sperm (spermatozoa mitochondria [2]; CHDH+/+ spermatozoa, betaine via drinking water for 42 days) | SMILES | choline-stimulated mitochondrial respiration [1] | decrease of MTT conversion (spermatozoa mitochondria [2]; CHDH+/+ sperm, betaine supplementation) [%] | amount of MTT reduction (spermatozoa mitochondria [2]; CHDH+/- or CHDH-/- spermatozoa, betaine supplementation) | changes in mitochondrial function, as measured by MTT assay and JC-1 staining (spermatozoa mitochondria [2]; betaine via drinking water for 42 days, exception CHDH+/+ MTT conversion) | effect on motility of spermatozoa (sperm [3]; CHDH+/+ or CHDH+/- spermatozoa, betaine via drinking water for 42 days) | sperm motility (sperm [3]; CHDH+/- mice, betaine supplementation) | asthenospermic phenotype (sperm [3]; CHDH-/- males, betaine via drinking water for 42 days) | progressive sperm motility (sperm [3]; CHDH-/- mice, drinking water supplemented to 2% betaine for 38 days) | effect on inner mitochondrial membrane potential (ΔΨm) (spermatozoa mitochondria [4]) | plasma tHcy concentrations [5] | effect on sperm concentration (sperm [6]; CHDH+/+, CHDH+/- or CHDH-/- mice, betaine supplementation) | number of sperm produced (sperm [6]; males of any CHDH genotype, betaine via drinking water for 42 days)
1 | – | O=C(O)CC(=O)O [malonate] | decreases | – | – | – | – | – | – | – | – | – | – | –
2 | – | C=C(C)[C@H]1Cc2c(ccc3c2O[C@@H]2COc4cc(OC)c(OC)cc4[C@@H]2C3=O)O1 [rotenone] | decreases | – | – | – | – | – | – | – | – | – | – | –
3 | significantly decreased | C[N+](C)(C)CC(=O)O [betaine] | – | 67 | did not change | No changes | nor was there any effect | unaffected | improved, but not fully rescued | approximately 30% | no effect | effective in lowering | did not have any effect | did not alter
